Measurements taken from patent publication US8314082B2, “Stilbene derivatives for ADP-ribosyl cyclase inhibitors” (Industrial Cooperation Foundation Chonbuk National …, priority 2006, dated 2012).

What was measured:
STZ diabetic mice = assay: Diabetic nephropathy in STZ diabetes mouse model; type: in vivo; conditions: 45 μg/kg i.p. once a day for 6 weeks, mean SE, n = 6
Description: Male mice, weighing 20 25 g, were made diabetic by a single intravenous injection of STZ (65 mg/kg body weight) in 0.05 M citrate buffer (pH 4.8). At the same day, the control mice were injected with the citrate buffer. After 2 days, induction of diabetes was confirmed by tail blood glucose level measurement by using the LifeScan One Touch glucometer (Johnson & Johnson). The diabetic mice (>16 mM blood glucose) were randomly divided into two groups; 6 mice per group treated with vehicle (0.1% DMSO in saline, 100 μl) or DHAB (45 μg/kg body weight in 0.1% DMSO in saline, 100 μl) and resveratrol (45 μg/kg body weight in 0.1% DMSO in saline, 100 μl) administered by intraperitoneal injection once a day for 6 weeks. The control mice were 6 mice per group treated with the vehicle. On day 39, the mice were detained in individual metabolic cages for 24 h for urine collection. On day 42, the mice were anesthetized with diethyl ether, and blood samples were taken from the abdominal aorta. Bilateral kidneys were rapidly removed and weighed. Urine was gravimetrically collected, and urinary albumin concentrations were determined with an enzyme-linked immunosorbent assay using a murine microalbuminuria kit (Albuwell; Exocell, Philadelphia, Pa.). Urine and serum creatinine levels were measured using the QuantiChrom Creatinine Assay Kit (BioAssay Systems, Hayward, Calif.), following the manufacturer's protocol.

[1] = test system: ADPR-cyclase purified partially from rat spleen; assay: ADPR-cyclase activity assay, spleen enzyme; type: biochemical; set-up: dose or concentration left out as unconfirmed
Description: (§1) FIGS. 1A and 1B show the inhibition of rat kidney ADPR-cyclase that was incubated with […] NGD^+ or e-NAD^+ in the presence of various concentrations of 4,4′-dihydrioxyazobenzene (DHAB) at 37° C. for 10 min and effects of DHAB on human CD38, rat brain, heart, spleen, and kidney ADPR-cyclase. FIGS. 1A and 1B are referred to as FIG. 1 herein.
Specific ADPR-cyclase activity was determined by measuring cyclic GDP-ribose (cGDPR) or etheno-ADP-ribose (e-cADPR) fluorometrically using NGD^+ or e-NAD^+ as a substrate [Greaff et al., Biochem. J. (2002)361:379-84]. Samples were incubated in the presence […] NGD^+ or e-NAD^+ with and without an appropriate agent in an assay buffer (25 mM HEPES, pH 7.4, 100 mM NaCl, and 0.1% Triton X-100) in a […]. The reaction mixture was incubated at 37° C. for 10 min. The reaction was stopped by adding […] trichloroacetic acid (10%). […] Fluorescence of cGDPR or e-ADPR in the solution was determined at excitation/emission wavelengths of 297/410 nm (HITACHI F-2000 fluorescence spectrophotometer). cADPR-hydrolase activity was determined by incubating cADPR with ADPR-cyclase or CD38 at 37° C. for 20 min. Hydrolysis of cADPR was analyzed by high performance liquid chromatography as described (White et al., 2000). […]

rat kidney ADPR-cyclase = assay: ADPR-cyclase activity assay (cGDPR / e-ADPR fluorescence from NGD+ or e-NAD+); type: biochemical; conditions: various concentrations
Description: as §1
Specific ADPR-cyclase activity was determined by measuring cyclic GDP-ribose (cGDPR) or etheno-ADP-ribose (e-cADPR) fluorometrically using NGD^+ or e-NAD^+ as a substrate [Greaff et al., Biochem. J. (2002)361:379-84]. Samples were incubated in the presence of […] NGD^+ or e-NAD^+ with and without an appropriate agent in an assay buffer (25 mM HEPES, pH 7.4, 100 mM NaCl, and 0.1% Triton X-100) in a […]. The reaction mixture was incubated at 37° C. for 10 min. The reaction was stopped by adding […] trichloroacetic acid (10%). […] Fluorescence of cGDPR or e-ADPR in the solution was determined at excitation/emission wavelengths of 297/410 nm (HITACHI F-2000 fluorescence spectrophotometer). cADPR-hydrolase activity was determined by incubating cADPR with ADPR-cyclase or CD38 at 37° C. for 20 min. Hydrolysis of cADPR was analyzed by high performance liquid chromatography as described (White et al., 2000). […]

- sensitivity of enzyme activity to compound [1]: insensitive
- inhibition of generation of cGDPR and e-ADPR from NGD+ and e-NAD+ (rat kidney ADPR-cyclase): concentration-dependent
Compound: Oc1ccc(N=Nc2ccc(O)cc2)cc1 [4,4′-DHAB, 4,4′-Dihydroxyazobenzene]
- Urine output (STZ diabetic mice; 24 h metabolic cage): 2.27 ± 1.80 mL/day
- Body Weight (STZ diabetic mice): 22.1 ± 0.58 g
- Food intake (STZ diabetic mice): 2.27 ± 0.61 g
- Plasma glucose (STZ diabetic mice): 342 ± 36.1 mg/dL
- Urinary Albumin (STZ diabetic mice): 4.01 ± 3.61 µg/day
- Water intake (STZ diabetic mice): 2.00 ± 1.73 mL
